# Measured values as given in US20250109275A1, “AMINE FATTY ACID ADDUCTS AS TIRE COMPOUNDING ADDITIVES” (priority 2023, published 2025).
# Tests used:
# [1] = Pour point of the additive; format: physicochemical; parameters: unit not given here; conditions: neat additive
# [2] = Flash point of the additive; format: physicochemical; conditions: neat additive
# [3] = neat additive
# Excerpt: Additional characteristics of the exemplary additives and controls are shown below in Table 9. […] The Control and Control 2 are the presented formula without an additive included. […] Blend 1 is the presented formula with a blend of rosin ester tackifier and fatty acid ester used as a control additive. For Control 2 and Inventive Ex. 1-Adj, the first pass and second pass were mixed in the mixer, but the final pass was mixed on the mill. Inventive Ex. 1-Adj was split into three (3) to allow for three (3) different cure adjustments to try to increase the Ts2 (the […] time for the viscosity to increase 2 units above minimum torque (ML)), slightly reduce Tc90 (the time it takes to get to 90% of the maximum state of cure/cross-linking (MH or maximum torque)), and increase the maximum torque (MH) to more closely match the Moving Die Rheometer (MDR) curve of the control compound.
Compound,Pour Point [1],Flash Point [2] [C.],Water Solubility [3]
tetraethylenepentamine (TEPA) oleic acid amidoamine [Inventive Ex. 5],−12,>200,–
"CCCCCCCC/C=C\CCCCCCCC(=O)NCCCN(C)C [Inventive Ex. 6, dimethylaminopropylamine (DMAPA) oleic acid amidoamine]",0,113,–
"CCCCCCCC/C=C\CCCCCCCC(=O)NCCNCCNC(=O)CCCCCCC/C=C\CCCCCCCC [Inventive Ex. 3, diethylenetriamine (DETA) oleic acid bisamide]",78,>200,none
"CCCCCCCC/C=C\CCCCCCCC(=O)NCCNCCN [Inventive Ex. 1, diethylenetriamine (DETA) oleic acid amidoamine]",36,>200,–
"CCCCCCCC/C=C\CCCCCCCC1=NCCN1CCN [Inventive Ex. 2, diethylenetriamine (DETA) oleic acid imidazoline]",−27,>200,Partial ~2%
